The source of these data is BindingDB's records for doi:10.1016/j.ejmech.2017.06.016 (University of Science and Technology of China, 2017).

In the assay the target is T1, Cytoplasmic tyrosine-protein kinase BMX (Homo sapiens, UniProt P51813).
T1 sequence (P51813 whole entry): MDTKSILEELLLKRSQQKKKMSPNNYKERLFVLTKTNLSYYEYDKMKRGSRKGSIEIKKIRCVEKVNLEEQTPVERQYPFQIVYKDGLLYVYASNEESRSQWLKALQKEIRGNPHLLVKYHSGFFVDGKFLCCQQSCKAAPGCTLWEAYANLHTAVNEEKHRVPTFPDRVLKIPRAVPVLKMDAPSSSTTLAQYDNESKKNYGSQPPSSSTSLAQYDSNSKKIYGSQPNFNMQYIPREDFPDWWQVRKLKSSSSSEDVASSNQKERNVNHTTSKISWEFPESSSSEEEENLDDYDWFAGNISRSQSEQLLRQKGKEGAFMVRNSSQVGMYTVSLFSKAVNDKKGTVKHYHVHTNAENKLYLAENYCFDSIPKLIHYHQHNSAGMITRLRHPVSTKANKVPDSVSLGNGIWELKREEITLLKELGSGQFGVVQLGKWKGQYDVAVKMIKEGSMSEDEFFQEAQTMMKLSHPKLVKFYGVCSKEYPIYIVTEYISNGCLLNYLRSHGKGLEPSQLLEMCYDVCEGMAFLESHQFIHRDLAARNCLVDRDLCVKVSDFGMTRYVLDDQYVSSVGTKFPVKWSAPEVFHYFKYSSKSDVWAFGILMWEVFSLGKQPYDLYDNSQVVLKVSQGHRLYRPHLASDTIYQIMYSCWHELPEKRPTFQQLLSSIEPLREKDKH
The assay can be described thus: ChEBML_1715921.
Procedure: Inhibition of recombinant full length His-tagged human BMX expressed in baculovirus expression system using poly (4:1 Glu, Tyr) as substrate preincubated for 1 hr followed by substrate addition measured after 1 hr by ADP-glo assay
Broadly, the IC50 is the midpoint of a concentration-inhibition curve. A low value points to greater potency. For the molecule `C=CC(=O)Nc1cc(-n2c(=O)ccc3cnc4ccc(-c5cnc6ccccc6c5)cc4c32)ccc1C` [QL-XII-54], the half-maximal inhibitory concentration (IC50) worked out at 19 nM.

`C=CC(=O)Nc1cc(-n2c(=O)ccc3cnc4ccc(-c5ccc6c(c5)OCCO6)cc4c32)ccc1C` [QL-XII-115] yielded a half-maximal inhibitory concentration (IC50) of 13 nM.

`C=CC(=O)Nc1cc(-n2c(=O)ccc3cnc4ccc(-c5ccsc5)cc4c32)ccc1C` [QL-XI-75] came in with a half-maximal inhibitory concentration (IC50) of 20 nM.

`C=CC(=O)Nc1cccc(-n2c(=O)ccc3cnc4ccc(-c5cn[nH]c5)cc4c32)c1` [QL-XI-13] showed a concentration for half-maximal inhibition (IC50) of 11 nM.

As to `C=CC(=O)N1CCc2ccc(-n3c(=O)ccc4cnc5ccc(-c6ccc(N)nc6)cc5c43)cc21` [QL-XII-45], inhibition was half-maximal at 13 nM (IC50).

Molecule `C=CC(=O)Nc1cccc(-n2c(=O)ccc3cnc4ccc(-c5ccc(N)nc5)cc4c32)c1` [QL-X-132] registered a 50% inhibitory concentration (IC50) of 16 nM.
